Measured values from EP0500785B1, “A HUMAN T CELL REACTIVE FELINE PROTEIN (TRFP) ISOLATED FROM HOUSE DUST AND USES THEREFOR” (IMMULOGIC PHARMACEUTICAL CORPORATION, priority 1989, dated 2002).

Columns and labels:
Format in all cases: cell-based, human
[1] = system: Peripheral blood mononuclear cells (PBMC); assay: Cytokine profiles (IL-2, IFN-γ, IL-4 cDNA) by PCR in a primary 36 hour PBMC culture; set-up: key to STIMULATION INDEX IL-2 / STIMULATION INDEX IFN-γ / STIMULATION INDEX IL-4: fold over medium control; undetectable control set to 1.00; conditions: Patient 409 primary 36 hour culture; for STIMULATION INDEX IFN-γ / STIMULATION INDEX IL-4 / STIMULATION INDEX IL-2: 20 micrograms TRFP/ml or 50 micrograms peptide/ml; for STIMULATION INDEX IFN-γ / STIMULATION INDEX IL-4: relative to medium control; for RATIO IFN/IL-4 / RATIO IL-2/IL-4: ratio of stimulation indices; for STIMULATION INDEX IL-2: medium not detectable, lowest measurable response set at 1.00
Description: Peripheral blood mononuclear cells (PBMC) were purified from cat-allergic patients as described in Example 5. Five x 10^6 PBMC were cultured at 2 x 10^6/ml for 36 hours in the presence of medium only, 20 micrograms purified TRFP/ml or 50 micrograms peptide/ml. The cells were then washed two times with phosphate buffered saline (PBS, pH 7.2) and lysed with 2 ml […] guanidinium isothiocyanate, 0.5% Sarkosyl, 5 mM sodium citrate, 0.1 M 2-mercaptoethanol, pH 7.0. The lysate was then forced through a 26 gauge needle to shear genomic DNA, and was layered onto a 2 ml cushion of 5.7 M CsCl, 0.01 M EDTA, pH 7.5 in diethylpyrocarbonate (DEPC)-treated water. The lysate was centrifuged at 35,000 RPM in a Beckman SW41 rotor for 18 hours at 20°C. The RNA pellet was resuspended in 0.4 ml TE (10 mM Tris, 1 mM EDTA) pH 7.5, 0.1% SDS, and then extracted three times with 0.5 ml phenol/0.2 ml chloroform. The RNA was then precipitated on dry ice with 2.5 volumes ice-cold ethanol, 1/10 volume 3 M sodium acetate, pH 5.2 in DEPC-treated water, rinsed once with 70% ethanol in DEPC-treated water, and dried. The RNA pellet was resuspended in 2 microliters TE, pH 7.5 in DEPC-treated water.
Total cellular RNA was converted to cDNA using the Superscript kit (BRL, Bethesda, MD). Two microliters of RNA were added to one microliter oligo (dT)12-18 (500 micrograms/ml) and 9 microliters water. The sample was heated to 70°C for 10 minutes and ice quenched. Four microliters 5X buffer were added to the sample along with 2 microliters 0.1 M DTT and 1 microliter dNTP mix (10 mM each, dATP, dCTP, dGTP, dTTP). One microliter reverse transcriptase (200U) was added and the reaction was carried out for one hour at 42°C. The reaction was terminated by incubation of the sample at 90°C for five minutes and stored at -80°C.
Ten-fold serial dilutions of T cell cDNA in 10 mM TRIS, pH 7.5 were amplified using the standard kit and protocol recommended by Perkin Elmer-Cetus (Redwood City, CA). Each sample received 26.65 microliters water, 5 microliters 10X PCR buffer, 8 microliters of dNTP mix (1.25 mM each of dATP, dCTP, dGTP and dTTP), 0.1 microliter alpha ^32P-dCTP (3000 Ci/mmol), 0.25 microliter AmpliTaq, 5 microliters cDNA and 5 microliters cytokine-specific 5' and 3' primers (20 micromolar). The primers used for most cytokines and the beta-actin control were purchased from Clontech (Redwood City, CA). The human IL-4 primers were purchased from Research Genetics (Huntsville, AL) and had the following sequences: [formula]
The reactions were carried out after overlaying each sample with one drop of mineral oil, with the following program in a programmable thermal cycler (MJ Research, Cambridge, MA).
The PCR products were extracted once with 25 microliters chloroform and 25 microliters of each sample were then electrophoresed on an 8% polyacrylamide gel at 250 V. The gel was dried and exposed to pre-flashed x-ray film. Several exposures of each gel were then scanned using a Shimadzu flying spot laser densitometer. Values on the linear portion of the titrations were then compared to the medium control values to obtain a stimulation index for each sample. Primers for beta-actin were included as a control for general cDNA levels in each sample. Where the medium control values are not detectable, the lowest measurable response was set at 1.00. In other experiments, levels of cytokine cDNA can be compared directly with previously amplified cytokine-specific cDNAs as standards. Thus, absolute levels of particular cytokine cDNAs can be compared from one sample to another and from one experiment to another. In this experiment, IL-2, IL-4 and IFN-gamma levels were measured. […] This analysis will be expanded to studies of other cytokines involved in the generation of allergic responses, such as IL-5, IL-8, IL-9, TGF-beta. Samples of cDNA from each treatment can also be saved for later analysis once additional cytokines are identified and sequenced. […]

[2] = system: TRFP primed T cell cultures; assay: T cell proliferation assay (tritiated thymidine incorporation) of TRFP-primed T cells restimulated with allergens or peptides; conditions: for T cell stimulatory activity: summarising Tables 2 and 3
Description: Peripheral blood mononuclear cells (PBMC) were purified from 60 ml of heparinized blood from cat allergic patients. PBMC were subsequently treated as described below, although in individual cases, the length of time of cultivation with IL-2 and/or IL-4 and the specific peptides used for stimulation varied.
10 ml of PBMC from patient 131 at 10^6/ml were cultured at 37°C for 7 days in the presence of 5 micrograms purified TRFP/ml RPMI-1640 supplemented with 5% pooled human AB serum. Viable cells were purified by Ficoll-Hypaque centrifugation and cultured for three weeks at 5 units recombinant human IL-2/ml and 5 units recombinant human IL-4/ml. The resting T cells were then restimulated (secondary) with 5 micrograms TRFP at 2 x 10^5/ml in the presence of irradiated (3500 Rads) autologous PBMC at a concentration of 5 x 10^5/ml for three days, purified by Ficoll-Hypaque centrifugation and grown in 5 units IL-2 and 5 units IL-4/ml for two weeks. For assay, 2 x 10^4 resting secondary T cells were restimulated (tertiary) in the presence of 5 x 10^4 irradiated (3500 Rads) autologous PBMC or 2 x 10^4 transformed B cells (20,000 Rads) with various concentrations of allergens or their fragments in a volume of 200 microliters in a 96-well round bottom assay plates for 3 days. Each well then received 1 microCurie tritiated (methyl) thymidine for 16 hours. The counts incorporated were collected onto glass fiber filters and processed for liquid scintillation counting.
Antigens used: T cell reactive feline protein (TRFP), Hollister-Stier cat epithelium skin test reagent (CST), IPC ragweed pollen extract (pollen), and synthetic peptides derived from the TRFP protein sequence (See Figures 6 and 7). Significant T cell proliferation is generally regarded as greater than 2.5 times the media control (T cells and antigen presenting cells alone).
Alternatively, PBMC were treated as follows: the primary stimulated cells were cultured in IL-2/IL-4 for two weeks. The resting T cells derived from this culture were tested in a secondary assay with some, but not all, of the above allergens. […] This type of epitope analysis has allowed the definition of T cell epitopes present in TRFP.

[3] = system: Patient 155 TRFP secondary primed T cells; assay: Induction of T cell anergy/tolerance in vitro, followed by proliferation assay on antigenic challenge
Description: The T cell cultures were exposed to 5µg/ml TRFP on day 0 and 5µg/ml, 10µg/ml, 10µg/ml and 20µg/ml thereafter. The peptide treated cultures were exposed to 1µg/ml peptide on day 0 and 1µg/ml, 1µg/ml, 2µg/ml and 5µg/ml thereafter. In addition, 0.5ml of fresh media was replaced on day 2. The cells were then washed and set up for a proliferation assay with 2x10^4 T cells and 2x10^4 irradiated (2500 Rad) autologous EBV and various doses of antigen. T cell proliferation was measured as incorporation of tritiated thymidine at day 9. […]

[4] = Chain #2 TRFP peptides, cat allergic patients, average SI of responding patients multiplied by percent positive
[5] = Chain #2 TRFP peptides, cat allergic patients, average of responding patients
[6] = Chain #1 TRFP peptides, average cpm with antigen divided by cpm of T cells and antigen presenting cells alone, responding patients, SI ≥ 2.5 positive
[7] = Chain #1 TRFP peptides, cat allergic patients, average SI of all responding patients multiplied by percent of patients with a positive response

Substance	STIMULATION INDEX IFN-γ [1]	STIMULATION INDEX IL-4 [1]	RATIO IFN/IL-4 [1]	PI [2, 4]	SI [2, 5]	T cell stimulatory activity ([2]; result in words)	STIMULATION INDEX IL-2 [1]	RATIO IL-2/IL-4 [1]	T cell proliferation (cpm) following Antigenic challenge: Fel 8-3 ([3]; label = tolerance treatment over 5 days, challenge with Fel 8-3)	T cell proliferation (cpm) following Antigenic challenge: Ragweed Peptide ([3]; label = tolerance treatment over 5 days, challenge with Ragweed Peptide)	T cell proliferation (cpm) following Antigenic challenge: TRFP ([3]; label = tolerance treatment over 5 days, challenge with TRFP)	T cell proliferation (cpm) following Antigenic challenge: - ([3]; label = tolerance treatment over 5 days, no challenge antigen)	T cell proliferation (cpm) following Antigenic challenge ([3]; no tolerance treatment (-), label = challenge antigen)	SI [2, 6]	PI [2, 7]	secondary T cell response of peripheral blood lymphocytes ([2]; patient 131, Figure 9, result in words)
Fel 28: TRFP chain 2 peptide, amino acids 60 - 82 (DGLVMTTISSSKDCMGEAVQNTV; UniProt P30440 77-99, looked up, fragment)	3.8	0.5	7.6	94	3.6	weakest T cell epitope containing region of TRFP	–	–	–	–	–	–	–	–	–	–
Fel 17: TRFP chain 2 peptide, amino acids 12 - 33 (DVFFAVANGNELLLDLSLTKVN; UniProt P30440 29-50, looked up, fragment)	82.4	7.5	11.0	421	6.1	–	315.1	42.0	–	–	–	–	–	–	–	–
Fel 8-3: TRFP chain 1 peptide, amino acids 7 - 33 (KRDVDLFLTGTPDEYVEQVAQYKALPV; UniProt P30438 29-55, looked up, fragment)	–	–	–	–	–	powerful activity	–	–	3,850 cpm	5,130 cpm	12,320 cpm	1,270 cpm	58,150 cpm	16.9	1437	–
Fel 25: TRFP chain 2 peptide, amino acids 49 - 68 (YVENGLISRVLDGLVMTTIS; UniProt P30440 66-85, looked up, fragment)	12.7	2.5	5.1	350	7.6	–	2.9	1.2	–	–	–	–	–	–	–	–
Fel 29: TRFP chain 2 peptide, amino acids 74 - 92 (MGEAVQNTVEDLKLNTLGR; UniProt P30440 91-109, looked up, fragment)	3.0	1.1	2.7	259	5.5	–	1.2	1.1	–	–	–	–	–	–	–	–
Fel 14: TRFP chain 1 peptide, amino acids 18 - 43 (PDEYVEQVAQYKALPVVLENARILKN; UniProt P30438 40-65, looked up, fragment)	75.0	1.9	39.5	–	–	powerful activity	106.9	56.3	–	–	–	–	–	13.7	1054	–
Fel 8: TRFP chain 1 peptide, amino acids 1 - 30 (EICPAVKRDVDLFLTGTPDEYVEQVAQYKA; UniProt P30438 23-52, looked up, fragment)	1.8	0.3	6.0	–	–	most dominant T-cell epitopes	1.0	3.3	–	–	–	–	–	18.1	1393	respond
Fel 20-1: TRFP chain 2 peptide, amino acids 34 - 59 (ATEPERTAMKKIQDCYVENGLISRVL; UniProt P30440 51-76, looked up, fragment)	12.0	4.6	2.6	395	5.9	–	–	–	–	–	–	–	–	–	–	–
